Results as given in US12077503B2, “Substituted cyclic amides and their use as herbicides” (FMC CORPORATION, priority 2015, dated 2024).

What was measured:
Format in all cases: in vivo
[1] = tested on: Galium (catchweed bedstraw, Galium aparine); test: Test A postemergence
Method in brief: (§1)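 Seeded soil received test chemicals as a preemergence directed spray, and seedlings at one to two leaves, 2–10 cm tall, received them postemergence, in a non-phytotoxic, surfactant-containing solvent mixture. Pots were held in a greenhouse for approximately 10 d, then rated for injury from 0, no effect, to 100, complete control.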

[2] = tested on: pigweed (Amaranthus retroflexus); test: Test A postemergence
Method in brief: as §1

[3] = tested on: blackgrass (Alopecurus myosuroides); test: Test A postemergence; conditions: postemergence
Method in brief: as §1

[4] = tested on: barnyardgrass (Echinochloa crus-galli); test: Test A postemergence; conditions: postemergence
Method in brief: as §1

[5] = tested on: giant foxtail (Setaria faberii); test: Test A postemergence
Method in brief: as §1

corn (Zea mays) = test: Test A postemergence; conditions: postemergence
Method in brief: as §1

Kochia (Kochia scoparia) [6] = test: Test A postemergence
Method in brief: as §1

[7] = tested on: ryegrass, Italian (Italian ryegrass, Lolium multiflorum); test: Test A postemergence
Method in brief: as §1

[8] = tested on: ragweed (common ragweed, Ambrosia elatior); test: Test A postemergence
Method in brief: as §1

[9] = tested on: wheat (Triticum aestivum); test: Test A postemergence
Method in brief: as §1

[10] = tested on: sedge, umbrella (small-flower umbrella sedge, Cyperus difformis); test: Test B flooded paddy test; conditions: Flood, 250 g ai/ha; 0 to 100 scale where 0 is no effect and 100 is complete control; 13 to 15 d
Method in brief: (§2)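 Greenhouse paddy pots with 2-leaf stage plants received compound by direct addition to floodwater 3 cm deep, kept at that level. Scored visually at 13–15 d versus controls (0 no effect; 100 complete control).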

[11] = tested on: barnyardgrass (Echinochloa crus-galli); test: Test B flooded paddy test; conditions: Flood, 250 g ai/ha; 0 to 100 scale where 0 is no effect and 100 is complete control; 13 to 15 d
Method in brief: as §2

rice (Oryra sativa) = test: Test B flooded paddy test; conditions: Flood, 250 g ai/ha; 0 to 100 scale where 0 is no effect and 100 is complete control; 13 to 15 d
Method in brief: as §2

[12] = tested on: ducksalad (Heteranthera limosa); test: Test B flooded paddy test; conditions: Flood, 250 g ai/ha; 0 to 100 scale where 0 is no effect and 100 is complete control; 13 to 15 d
Method in brief: as §2

[13] = tested on: pigweed (Amaranthus retroflexus); test: Test A preemergence; conditions: Preemergence
[14] = tested on: barnyardgrass (Echinochloa crus-galli); test: Test A preemergence
Method in brief: as §1

[15] = tested on: giant foxtail (Setaria faberii); test: Test A preemergence
Method in brief: as §1

Kochia (Kochia scoparia) [16] = test: Test A preemergence
Method in brief: as §1

[17] = tested on: ryegrass, Italian (Italian ryegrass, Lolium multiflorum); test: Test A preemergence; conditions: Preemergence
Method in brief: as §1

[18] = tested on: ragweed (common ragweed, Ambrosia elatior); test: Test A preemergence; conditions: Preemergence
Method in brief: as §1

[19] = 125 g ai/ha, postemergence, visual injury rating on 0 to 100 scale (0 no effect, 100 complete control), approx. 10 d
[20] = Postemergence, 500 g ai/ha, 0 to 100 scale where 0 is no effect and 100 is complete control
[21] = 125 g ai/ha, visual injury rating on 0 to 100 scale (0 no effect, 100 complete control), approx. 10 d
[22] = 500 g ai/ha, 0 to 100 scale, 0 no effect, 100 complete control
[23] = 125 g ai/ha, visual injury after approximately 10 d, 0 to 100 scale where 0 is no effect and 100 is complete control
[24] = 500 g ai/ha, visual injury approx. 10 d
[25] = 125 g ai/ha, preemergence, 0 to 100 scale (0 no effect, 100 complete control)
[26] = Preemergence, 500 g ai/ha, visual injury approx. 10 d

CN1CC(c2ccc(C(F)(F)F)cc2F)C(C(=O)Nc2ccccc2F)C1=O (stereo not drawn) [Compound 476]
Galium plant response rating [1, 19]: 30 | Plant response rating, Galium [1, 20]: 60 | Pigweed plant response rating [2, 19]: 20 | Plant response rating, Pigweed [2, 20]: 40 | Blackgrass plant response rating [3, 21]: 20 | Plant response rating, Blackgrass [3, 22]: 50 | Barnyardgrass plant response rating [4, 21]: 90 | Plant response rating, Barnyardgrass [4, 22]: 90 | Foxtail, Giant plant response rating [5, 19]: 80 | Plant response rating, Foxtail, Giant [5, 20]: 80 | Corn plant response rating (corn (Zea mays); [21]): 0 | Plant response rating, Corn (corn (Zea mays); [22]): 30 | Kochia plant response rating (Kochia (Kochia scoparia) [6]; [19]): 30 | Plant response rating, Kochia (Kochia (Kochia scoparia) [6]; [20]): 60 | Ryegrass, Italian plant response rating [7, 19]: 30 | Plant response rating, Ryegrass, Italian [7, 20]: 40 | Ragweed plant response rating [8, 19]: 0 | Plant response rating, Ragweed [8, 20]: 0 | Wheat plant response rating [9, 19]: 0 | Plant response rating, Wheat [9, 20]: 30 | Plant response rating, Sedge, Umbrella [10]: 0 | Plant response rating, Barnyardgrass [11]: 0 | Plant response rating, Rice (rice (Oryra sativa)): 0 | Plant response rating, Ducksalad [12]: 80 | Plant response rating, Pigweed [13, 23]: 30 | Pigweed plant response rating (0 to 100 scale, 0 is no effect, 100 is complete control) [13, 24]: 80 | Plant response rating, Barnyardgrass [14, 25]: 90 | Barnyardgrass plant response rating (0 to 100 scale, 0 is no effect, 100 is complete control) [14, 26]: 90 | Plant response rating, Foxtail, Giant [15, 25]: 90 | Foxtail, Giant plant response rating (0 to 100 scale, 0 is no effect, 100 is complete control) [15, 26]: 100 | Plant response rating, Kochia (Kochia (Kochia scoparia) [16]; [25]): 50 | Kochia plant response rating (0 to 100 scale, 0 is no effect, 100 is complete control) (Kochia (Kochia scoparia) [16]; [26]): 70 | Plant response rating, Ryegrass, Italian [17, 23]: 0 | Ryegrass, Italian plant response rating (0 to 100 scale, 0 is no effect, 100 is complete control) [17, 24]: 40 | Plant response rating, Ragweed [18, 23]: 0 | Ragweed plant response rating (0 to 100 scale, 0 is no effect, 100 is complete control) [18, 24]: 60
